Data taken from US5244895A, “Anti-ulcer agent” (Hidaka; Hiroyoshi, priority 1991, dated 1993).
Where two headings read alike, the source gives them in different places.

Experiments:
Format in all cases: in vivo, Crj:Wistar rat (male)
[1] = tested on: aspirin ulcer; test: Anti-aspirin ulcer test, oral administration; conditions: 100 mg/kg oral, 6 h; for Gastric damage index: 30 min before aspirin 200 mg/kg oral, control 76.0; for inhibition in vivo at 100 mg/kg: Rattus norvegicus, gastric damage index vs control, aspirin 200 mg/kg, read-out: Inhibition rate
Protocol: (§1) Each 100 mg/kg of the test compounds was administered orally to a male Crj:Wistar rat of 198 to 243 g body weight fasted for ca. 24 hours (7 to 8 rats per group) and 30 minutes after the administration 200 mg/5 ml/kg of aspirin suspended in 0.5% sodium CMC aqueous solution was administered orally. Six hours later the animals was killed by exsanguination and the cardia part of stomach was ligated and 10 ml of 1% formaline solution was poured into the stomach and the stomach was extirpated. Then, it was incised along the greater curvature side and washed with physiological saline and the major axis of the spotted and linear erosion and ulcer were measured under a steromicroscope and their total sum per head was calculated as the gastric damage index (mm) and the effect was judged by the inhibiting rate against the control group [(Gastric damage index of the control group-Gastric damage index of the test compound)/Gastric damage index of the control group×100]. 0.5 ml/body weight of 1% pontamine sky blue physiological saline was injected intravenously 10 minutes before the slaughter. The test compound was administered after dissolved in physiological saline or in physiological saline containing Tween 80 added. Five […] of physiological saline was administered to the control group.

[2] = tested on: water immersion restriction stress ulcer; test: Water immersion restriction stress ulcer, oral administration; conditions: for Gastric damage index: 30 min before 6 h water immersion stress, control 15.7; for inhibition in vivo at 100 mg/kg: Rattus norvegicus, 6 h, read-out: Inhibition rate
Protocol: (§2) After the stress loading, the animal was killed by exsanguination and the cardia part of stomach was ligated and then 10 ml of 1% formalin was poured into the stomach and the stomach was extirpated. […] 0.5 ml/body weight of 1% pontamine sky blue physiological saline was injected intravenously 10 minutes before the slaughter. The test compound was administered after dissolved in physiological saline or in physiological saline containing Tween 80 added. Five […] of physiological saline was administered to the control group.

[3] = tested on: gastric juice secretion; test: Anti-gastric juice secretion test, intraduodenal administration (pylorus ligation); conditions: 100 mg/kg intraduodenal, 4 h after pylorus ligation; for pH of gastric juice: control 1.7; for Amount of gastric juice: control 2.6; for Free hydrochloric acid: control 116; for Total acidity: control 168
Protocol: Each 100 mg/kg of the test compounds was administered duodenally to a male Crj:Wistar rat of 205 to 240 g body weight fasted for ca. 24 hours (7 to 8 rats per group) and immediately after the dose the pylorus was ligated under diethyl ether anesthesia. Four hours after the ligation, the animal was killed and the stomach was isolated and the amount and the pH of gastric juice and free hydrochloric acid contained in it and the total acidity of it were measured to examine the effect of inhibiting gastric juice secretion. The test compounds were dosed after dissolved in physiological saline or in physiological saline containing Tween 80 added. Five […] of physiological saline was administered to the control group.

[4] = tested on: gastric juice secretion; test: Anti-gastric juice secretion test, intraperitoneal administration (pylorus ligation); conditions: 100 mg/kg intraperitoneal, 30 min before pylorus ligation; for pH of gastric juice: control 1.7; for Amount of gastric juice: control 3.2; for Free hydrochloric acid: control 155; for Total acidity: control 208
[5] = tested on: water immersion restriction stress ulcer; test: Water immersion restriction stress ulcer, intraperitoneal administration; conditions: 100 mg/kg intraperitoneal; for Gastric damage index: control 22.7; for Inhibition rate: gastric damage index vs control
Protocol: as §2

[6] = tested on: aspirin ulcer; test: Anti-aspirin ulcer test, intraperitoneal administration; conditions: for Gastric damage index: 100 mg/kg intraperitoneal (abdominally injected), control 58.8; for Inhibition rate: gastric damage index vs control, 100 mg/kg intraperitoneal
Protocol: as §1
Each 100 mg/kg of the test compound was abdominally injected to a male Crj:Wistar rat of 210 to 265 g body weight fasted for ca. 24 hours (7 to 8 rats per group) and the procedures were carried out in a same manner as in oral administration.

[7] = gastric damage index vs control, 100 mg/kg oral, water immersion stress

| SMILES | Gastric damage index [1] | inhibition in vivo at 100 mg/kg [1] | Gastric damage index ([2]; 100 mg/kg oral) | inhibition in vivo at 100 mg/kg [2, 7] | pH of gastric juice [3] | Amount of gastric juice [3] | Free hydrochloric acid [3] | Total acidity [3] | pH of gastric juice [4] | Amount of gastric juice [4] | Free hydrochloric acid [4] | Total acidity [4] | Gastric damage index [5] | Inhibition rate [5] | Gastric damage index [6] | Inhibition rate [6] | inhibition in vivo at 100 mg/kg ([2]; po) |
| --- | --- | --- | --- | --- | --- | --- | --- | --- | --- | --- | --- | --- | --- | --- | --- | --- | --- |
| O=S(=O)(NC(Cc1ccc(O)cc1)CN1CCN(c2ccccc2)CC1)c1cccc2cnccc12 (stereo not drawn) [(1), N-[1-(p-hydroxybenzyl)-2-(4-phenylpiperazinyl)ethyl]-5-isoquinoline sulfonamide] | 40.1 mm | 47% | 10.5 mm | 33% | 2.0 | 2.2 ml/100 g body weight | 36 μEq/100 g body weight | 71 μEq/100 g body weight |  |  |  |  |  |  |  |  |  |
| CN(C(Cc1ccc(O)cc1)CN1CCN(c2cccc(Cl)c2)CC1)S(=O)(=O)c1cccc2cnccc12 (stereo not drawn) [(2), N-{2-[4-(m-chlorophenyl)piperazinyl]-1-(p-hydroxybenzyl)ethyl}-N-methyl-5-isoquinoline sulfonamide] | 40.3 mm | 46% | 9.7 mm | 38% | 2.1 | 2.1 ml/100 g body weight | 40 μEq/100 g body weight | 92 μEq/100 g body weight |  |  |  |  |  |  |  |  |  |
| O=S(=O)(NC(Cc1ccc(OS(=O)(=O)c2cccc3cnccc23)cc1)CN1CCN(c2ccc(F)cc2)CC1)c1cccc2cnccc12 (stereo not drawn) [(3), N-{2-[4-(p-fluorophenyl)piperazinyl]-1-(p-(5-isoquinolinesulfonyloxy)benzyl]ethyl}-5-isoquinoline sulfonamide] | 56.7 mm | 25% | 11.2 mm | 29% | 1.8 | 2.5 ml/100 g body weight | 82 μEq/100 g body weight | 140 μEq/100 g body weight |  |  |  |  |  |  |  |  |  |
| O=S(=O)(NC(Cc1ccc(O)cc1)CN1CCCN(c2ccccc2)CC1)c1cccc2cnccc12 (stereo not drawn) [(6), N-[1-(p-hydroxybenzyl)-2-(4-phenylhomopiperazinyl)ethyl]-5-isoquinolinesulfonamide] | 52.9 mm | 30% | 12.2 mm | 22% | 1.8 | 2.3 ml/100 g body weight | 53 μEq/100 g body weight | 87 μEq/100 g body weight |  |  |  |  |  |  |  |  |  |
| O=S(=O)(NC(Cc1ccc(O)cc1)CN1CCC(OCc2ccc(Cl)c(Cl)c2)CC1)c1cccc2cnccc12 (stereo not drawn) [(7), N-{1-(p-hydroxybenzyl)-2-[4-(3,4-dichlorobenzyloxy)piperidino]ethyl}-5-isoquinoline sulfonamide] | 26.9 mm | 65% | 5.4 mm | 66% | 2.5 | 1.2 ml/100 g body weight | 26 μEq/100 g body weight | 63 μEq/100 g body weight | 2.6 | 1.5 ml/100 g body weight | 32 μEq/100 body weight | 71 μEq/100 body weight | 7.0 mm | 69% | 15.3 mm | 74% |  |
| CN(C(Cc1ccc(O)cc1)CN1CCC(OCc2ccc(Cl)c(Cl)c2)CC1)S(=O)(=O)c1cccc2cnccc12 (stereo not drawn) [(8), N-{1-(p-hydroxybenzyl)-2-[4-(3,4-dichlorobenzyloxy)piperidino]ethyl}-N-methyl-5-isoquinoline sulfonamide] | 28.9 mm | 62% | 6.5 mm |  | 2.3 | 1.6 ml/100 g body weight | 32 μEq/100 g body weight | 68 μEq/100 g body weight |  |  |  |  |  |  |  |  | 59% |
| COc1ccc(CC(CN2CCC(OCc3ccc(Cl)c(Cl)c3)CC2)N(C)S(=O)(=O)c2cccc3cnccc23)cc1 (stereo not drawn) [(9), N-{1-(p-methoxybenzyl)-2-[4-(3,4-dichlorobenzyloxy)piperidino]ethyl}-N-methyl-5-isoquinoline sulfonamide] | 45.4 mm | 40% | 9.7 mm | 38% | 2.1 | 2.2 ml/100 g body weight | 44 μEq/100 g body weight | 89 μEq/100 g body weight |  |  |  |  |  |  |  |  |  |
| CN(C(Cc1ccc(OS(=O)(=O)c2cccc3cnccc23)cc1)CN1CCC(c2ccccc2)CC1)S(=O)(=O)c1cccc2cnccc12 (stereo not drawn) [(10), N-{1-(p-(5-isoquinolinesulfonyloxy)benzyl]-2-(4-phenylpiperidino)ethyl}-N-methyl-5-isoquinoline sulfonamide] | 48.3 mm | 37% | 11.2 mm | 29% | 1.8 | 2.4 ml/100 g body weight | 68 μEq/100 g body weight | 102 μEq/100 g body weight |  |  |  |  |  |  |  |  |  |
| CN(C(Cc1ccc(O)cc1)CN1CCC(c2ccccc2)CC1)S(=O)(=O)c1cccc2cnccc12 (stereo not drawn) [(11), N-[1-(p-hydroxybenzyl)-2-(4-phenylpiperidino)ethyl]-N-methyl-5-isoquinoline sulfonamide] | 27.3 mm | 64% | 6.8 mm | 57% | 2.5 | 1.5 ml/100 g body weight | 36 μEq/100 g body weight | 65 μEq/100 g body weight |  |  |  |  |  |  |  |  |  |
| O=C(C(Cc1ccc(OS(=O)(=O)c2cccc3cnccc23)cc1)NS(=O)(=O)c1cccc2cnccc12)N1CCN(c2ccccc2)CC1 (stereo not drawn) [(12), N-[N,O-bis(5-isoquinolinesulfonyl)tyrosyl]-4-phenylpiperizine] | 43.5 mm | 43% | 9.4 mm | 40% | 2.1 | 2.2 ml/100 g body weight | 41 μEq/100 g body weight | 80 μEq/100 g body weight |  |  |  |  |  |  |  |  |  |
| CN(C(Cc1ccc(OS(=O)(=O)c2cccc3cnccc23)cc1)C(=O)N1CCN(c2ccccc2)CC1)S(=O)(=O)c1cccc2cnccc12 (stereo not drawn) [(13), N-[N,O-bis(5-isoquinolinesulfonyl)-N-methyltyrosyl]-4-phenylpiperizine] | 30.3 mm | 60% | 5.4 mm | 66% | 2.3 | 1.9 ml/100 g body weight |  |  | 2.4 | 1.6 ml/100 g body weight | 55 μEq/100 body weight | 102 μEq/100 body weight | 6.4 mm | 72% | 17.6 mm | 70% |  |
